What is called inhibition is how much of the control response was suppressed.

Where two headings read alike, the source gives them in different places. A value given as a limit tells only on which side of the number the result lay.

This test concerns the target T1, farnesoid X receptor (Homo sapiens, UniProt Q96RI1).
T1 construct: fused on or other part: GST fused in frame to the N-terminus of the LBD (TR-FRET assay only); Nothing is fused on in the co-transfection assay
T1 sequence (Q96RI1 244-471 isoform Q96RI1-2 limits assumed): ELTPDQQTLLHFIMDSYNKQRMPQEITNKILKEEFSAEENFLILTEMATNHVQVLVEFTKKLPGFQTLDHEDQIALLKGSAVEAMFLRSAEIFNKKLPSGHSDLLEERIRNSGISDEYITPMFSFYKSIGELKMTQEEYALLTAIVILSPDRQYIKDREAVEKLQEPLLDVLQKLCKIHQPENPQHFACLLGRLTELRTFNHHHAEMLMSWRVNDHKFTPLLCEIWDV
Put plainly: one or more of the in vitro assays described herein (TR-FRET assay, Example 75; co-transfection assay, Example 76).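 As to all read-outs here: TR-FRET assay or luciferase reporter in CV-1 monkey kidney cells co-transfected with human FXR and RXRα, dose-response over 8 half-log concentrations, CDCA added in antagonist mode.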 Particulars: for Emax: read-out: efficacy; for inhibition: 100% = baseline (DMSO only).

The mark [1] stands for this setting: one or more of the in vitro assays, read-out: EC50 (agonist / partial agonist).
The mark [2] stands for this setting: relative to maximum response of chenodeoxycholic acid (CDCA).
The mark [3] stands for this setting: inhibition of the activity of CDCA, read-out: IC50 (antagonist / partial agonist).
The mark [4] stands for this setting: inhibition of the activity of CDCA.

Protocol: (Wallac/PE Life Sciences, Cat# AD0059A) in FRET assay buffer (20 mM KH2PO4/K2HPO4 (pH 7.3), 150 mM NaCl, 2 mM CHAPS, 2 mM EDTA, 1 mM DTT) in the presence of the test compound(s) for 2-4 hours at room temperature in a 384 well assay plate. Data was collected using an LJL Analyst using the standard operating instructions and conditions with readings at emission wavelengths of 615 nm and 665 nm after a delay of 65 ps and an excitation wavelength of 330 nm.
The basic co-transfection protocol for measuring the farnesoid X receptor activity is as follows. CV-1 African Green Monkey Kidney cells were plated 24 hours before transfection to achieve approximately 70-80 percent confluency. Cells were transfected with the following expression vectors, CMX-farnesoid X receptor (full length human farnesoid X receptor), CMX-RXRα (full length human RXR), Luc12 (ECREx7-Tk-Luciferase) luciferase reporter gene construct. […] A CMX-β-Galactosidase expression vector was used as a transfection control. The transfection reagent used was DOTAP (Boehringer Mannheim). Cells were incubated with the DOTAP/DNA mixture for 5 hours after which the cells were harvested and plated onto either 96 well or 384 well plates containing the appropriate concentration of test compound. The assay was allowed to continue for an additional 18-20 hours, after which the cells were lysed, with lysis buffer (1% triton X 100, 10% glycerol, 5 mM Dithiothreitol, 1 mM EGTA, 25 mM Tricine, pH 7.8) and the luciferase activity measured in the presence of Luciferase assay buffer (0.73 mM ATP, 22.3 mM Tricine, 0.11 mM EGTA, 0.55 mM Luciferin, 0.15 mM Coenzyme A, 0.5 mM HEPES, 10 mM Magnesium sulphate) on a standard luminomter plate reader (PE Biosystems, NorthStar Reader), using recommended operating instructions and conditions.
Both the farnesoid X receptor/ECREx7 co-transfection assay (Example 76) and the TR-FRET assay (Example 75) can be used to establish the EC50/IC50 values for potency and percent activity or inhibition for efficacy. Efficacy defines the activity of a compound relative to a high control (chenodeoxycholic acid, CDCA) or a low control (DMSO/vehicle). The dose response curves are generated from an 8 point curve with concentrations differing by ½ LOG units. Each point represents the average of 4 wells of data from a 384 well plate. The curve for the data is generated by using the equation: Y=Bottom+(Top−Bottom)/(1+10^((LogEC50−X)*HillSlope))
The EC50/IC50 is therefore defined as the concentration at which an agonist or antagonist elicits a response that is half way between the Top (maximum) and Bottom (baseline) values. The EC50/IC50 values represented are the averages of at least 3 independent experiments. The determination of the relative efficacy or % control for an agonist is by comparison to the maximum response achieved by chenodeoxycholic acid that is measured individually in each dose response experiment.
For the antagonist assay, CDCA is added to each well of a 384 well plate to elicit a response. The % inhibition for each antagonist is therefore a measurement of the inhibition of the activity of CDCA.

As for `CCOC(=O)C1=CN(C(=O)c2ccc(F)c(F)c2)CC(C)c2c1[nH]c1ccccc21` (centres unmarked) [ethyl 3-(3,4-difluorobenzoyl)-1-methyl-1,2,3,6-tetrahydroazepino[4,5-b]indole-5-carboxylate], the EC50 under setting [1] is < 0.1 µM. Besides, the Emax under setting [2] was > 100%.

For the compound `CCOC(=O)C1=CN(C(=O)c2ccc(F)cc2)CC(C)(C)c2c1[nH]c1cc(OC(=O)NCc3cccnc3)ccc21` [3-(4-fluorobenzoyl)-1,1-dimethyl-8-(pyridin-3-ylmethylcarbamoyloxy)-1,2,3,6-tetrahydroazepino[4,5-b]indole-5-carboxylic acid ethyl ester], the IC50 under setting [3] was < 0.2 µM. In addition, under setting [1], the EC50 is < 0.2 µM. The Emax under setting [2] fell in the range of 10 to 30%.

Take `CCOC(=O)C1=CN(C(=O)c2ccc(F)cc2)CC(C)(C)c2c1[nH]c1cc(OC(=O)NCc3cnc(C)cn3)ccc21` [3-(4-fluorobenzoyl)-1,1-dimethyl-8-(5-methylpyrazin-2-ylmethylcarbamoyloxy)-1,2,3,6-tetrahydroazepino[4,5-b]indole-5-carboxylic acid ethyl ester]: the IC50 under setting [3] was < 0.2 µM. For the same compound, the EC50 under setting [1] was < 0.2 µM. Moreover, the Emax under setting [2] is 10 to 30%.

Regarding `CCOC(=O)C1=CN(C(=O)c2ccc(F)cc2)CC(C)(C)c2c1[nH]c1cc(OC(=O)NCc3ccccn3)ccc21` [3-(4-fluorobenzoyl)-1,1-dimethyl-8-(pyridin-2-yl-methylcarbamoyloxy)-1,2,3,6-tetrahydroazepino[4,5-b]indole-5-carboxylic acid ethyl ester], the EC50 was < 0.2 µM, the IC50 was < 0.2 µM and the Emax was in the range of 10 to 30%.

Turning to `CCOC(=O)C1=CN(C(=O)c2ccc(F)c(F)c2)CC2(CCCC2)c2c1[nH]c1ccccc21` [3-(3,4-difluorobenzoyl)-1,1-tetramethylene-1,2,3,6-tetrahydroazepino[4,5-b]indole-5-carboxylic acid ethyl ester], under setting [1], the EC50 was < 0.1 µM. Further, the Emax under setting [2] was > 100%.

For `CC(C)OC(=O)C1=CN(C(=O)c2ccc(F)c(F)c2)CC(C)(C)c2c1[nH]c1ccccc21` [isopropyl 3-(3,4-difluorobenzoyl)-1,1-dimethyl-1,2,3,6-tetrahydroazepino[4,5-b]indole-5-carboxylate], the Emax under setting [2] is > 100%.

In the case of `CCOC(=O)C1=CN(C(=O)c2ccc(F)cc2)CC(C)(C)c2c1[nH]c1cc(OC(=O)NC3CCCCC3)ccc21` [8-cyclohexylcarbamoyloxy-3-(4-fluorobenzoyl)-1,1-dimethyl-1,2,3,6-tetrahydroazepino[4,5-b]indole-5-carboxylic acid ethyl ester], under setting [3], the IC50 was < 0.2 µM. Also, under setting [1], the EC50 is < 0.2 µM. Moreover, the Emax under setting [2] was 10 to 30%.

On to `CCOC(=O)C1=CN(C(=O)c2ccc(F)cc2)CC(C)(C)c2c1[nH]c1cc(OC(=O)NC3CC3)ccc21` [8-cyclopropylcarbamoyloxy-3-(4-fluorobenzoyl)-1,1-dimethyl-1,2,3,6-tetrahydroazepino[4,5-b]indole-5-carboxylic acid ethyl ester], for which the inhibition under setting [4] is recorded as 100%. Further, under setting [3], the IC50 was < 0.1 µM.

In the case of `CCOC(=O)C1=CN(C(=O)c2ccc(F)cc2)CC(C)(C)c2c1[nH]c1cc(N(C)C(=O)NC3CC3)ccc21` [8-(3-cyclopropyl-1-methylureido)-3-(4-fluorobenzoyl)-1,1-dimethyl-1,2,3,6-tetrahydroazepino[4,5-b]indole-5-carboxylic acid ethyl ester], under setting [4], the inhibition is 100%. Under setting [3], the IC50 was < 0.1 µM.

Consider `CCOC(=O)C1=CN(C(=O)c2ccc(F)cc2)CC(C)(C)c2c1[nH]c1cc(OC(=O)NCCc3ccccn3)ccc21` [3-(4-fluorobenzoyl)-1,1-dimethyl-8-(2-pyridin-2-yl-ethylcarbamoyloxy)-1,2,3,6-tetrahydroazepino[4,5-b]indole-5-carboxylic acid ethyl ester], for which the IC50 under setting [3] is < 0.2 µM. Also, the EC50 under setting [1] was < 0.2 µM. The Emax under setting [2] is 10 to 30%.

In the case of `CC1Cc2c([nH]c3ccccc23)C(C(=O)NC2CCC2)=CN1C(=O)c1ccc(F)cc1` (centres unmarked) [3-(4-fluorobenzoyl)-2-methyl-1,2,3,6-tetrahydroazepino[4,5-b]indole-5-carboxylic acid cyclobutylamide], the EC50 under setting [1] was < 0.1 µM. In addition, the Emax under setting [2] was > 100%.

The compound `CCOC(=O)C1=CN(C(=O)c2ccc(F)cc2)CC(C)(C)c2c1[nH]c1cc(OC(=O)NC(C)C)ccc21` [3-(4-fluorobenzoyl)-1,1-dimethyl-8-isopropylcarbamoyloxy-1,2,3,6-tetrahydroazepino[4,5-b]indole-5-carboxylic acid ethyl ester] yielded an inhibition under setting [4] of 100%. Under setting [3], the IC50 is < 0.1 µM.

Take `CCOC(=O)C1=CN(C(=O)c2ccc(F)cc2)CC(C)(C)c2c1[nH]c1ccc(N(Cc3ccccc3)C(=O)N(C)C)cc21` [9-(1-benzyl-3,3-dimethyl-ureido)-3-(4-fluoro-benzoyl)-1,1-dimethyl-1,2,3,6-tetrahydro-azepino[4,5-b]indole-5-carboxylic acid ethyl ester]: the inhibition under setting [4] worked out at 100%. In addition, under setting [3], the IC50 was < 0.1 µM.

With `CCOC(=O)C1=CN(C(=O)c2ccc(F)cc2)CC(C)(C)c2c1[nH]c1ccc(F)cc21` [9-Fluoro-3-(4-fluoro-benzoyl)-1,1-dimethyl-1,2,3,6-tetrahydro-azepino[4,5-b]indole-5-carboxylic acid ethyl ester], the EC50 under setting [1] is < 0.1 µM. Moreover, under setting [2], the Emax is > 100%.

`CC(C)OC(=O)C1=CN(C(=O)c2ccc(F)c(F)c2)CC(C)c2c1[nH]c1ccccc21` (centres unmarked) [isopropyl 3-(3,4-difluorobenzoyl)-1-methyl-1,2,3,6-tetrahydroazepino[4,5-b]indole-5-carboxylate]: the EC50 under setting [1] was < 0.1 µM. The Emax under setting [2] was > 100%.

`CCOC(=O)C1=CN(C(=O)c2ccc(F)cc2)CC(C)(C)c2c1[nH]c1cc(N(C)C(=O)NCc3ccccn3)ccc21` [3-(4-fluorobenzoyl)-1,1-dimethyl-8-(1-methyl-3-pyridin-2-ylmethylureido)-1,2,3,6-tetrahydroazepino[4,5-b]indole-5-carboxylic acid ethyl ester] yielded an inhibition under setting [4] of 100%. In addition, the IC50 under setting [3] is < 0.1 µM.

As for `CCOC(=O)C1=CN(C(=O)c2ccc(F)cc2)CC(C)(C)c2c1[nH]c1cc(OC(=O)NCc3cccs3)ccc21` [3-(4-fluorobenzoyl)-1,1-dimethyl-8-(thiophen-2-ylmethylcarbamoyloxy)-1,2,3,6-tetrahydroazepino[4,5-b]indole-5-carboxylic acid ethyl ester], the inhibition under setting [4] worked out at 100%. The IC50 under setting [3] is < 0.1 µM.

The record behind these values is US7485634B2, “Azepinoindole and pyridoindole derivatives as pharmaceutical agents” (Exelixis, Inc., priority 2002, dated 2009).
